This is an account of results in US11649246B2, “Salts of 4-amino-N-(l-((3-chloro-2-fluorophenyl)amino)-6-methylisoquinolin-5-yl)thieno[3,2-D]pyrimidine-7-carboxamide, and crystalline forms thereof” (Hanmi Pharm. Co., Ltd., priority 2017, dated 2023).

The series in a line: Water solubility of Formula (I) free base. The series is classed as physicochemical. The protocol:
Formula (I) free base is poorly soluble in water with a solubility of less than 0.4 μg/mL. Salt forms of free base compounds may result in improved water solubility.

Molecules are shown by their SMILES.

One may read the solubility as the dissolved amount per volume that the medium holds. Low values mean a poorly soluble substance, high ones a readily soluble substance.

As for `Cc1ccc2c(Nc3cccc(Cl)c3F)nccc2c1NC(=O)c1csc2c(N)ncnc12` [Formula (I) free base, 4-amino-N-(1-((3-chloro-2-fluorophenyl)amino)-6-methylisoquinolin-5-yl)thieno[3,2-d]pyrimidine-7-carboxamide], the solubility is below 0.4 µg/mL.
